pIC50: −log10 of the molar value.
Experiments:
c-MET = target: T1, c-MET (Homo sapiens, UniProt P08581); test: Test A: HTRF Met test in 96-well format; format: biochemical
T1 construct: The recombinant DNA His-Tev-MET (956-1390) in pFastBac(Invitrogen); His (N, cleaved yes); Tev (TEV protease site) (N, cleaved yes); made in house; host or cells: SF21 insect cells (baculovirus, pFastBac)
Method in brief: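 Percent inhibition was calculated from the HTRF 665/620 ratio, using Eu-cryptate anti-phosphotyrosine PT66 plus streptavidin-XL added with EDTA and read after 2 h. The reaction ran 10 min at room temperature: 5 nM tag-cleaved MET (956–1390), 10 µM ATP, 1 µg/ml poly-GAT, and compound from 0.17 nM to 10 µM in 3% DMSO.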

MKN45 cells = test: Test D: cellular proliferation by 14C-thymidine pulse, MKN45 cells; format: cell-based; conditions: cell line not stated (HCT116 or MKN45)
Method in brief: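 MKN45 cells (7500/well, RPMI + 10% foetal calf serum) treated with 10 concentrations, 10000 to 0.3 nM in 3-fold steps, duplicate. 14C-thymidine (0.1 μCi/well) added at 72 h; incorporation counted after 24 h pulse, 96 h total treatment.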

[1] = Homo sapiens, MKN-45, cellular proliferation by 14C-thymidine pulse

T1 sequence (P08581 956-1390): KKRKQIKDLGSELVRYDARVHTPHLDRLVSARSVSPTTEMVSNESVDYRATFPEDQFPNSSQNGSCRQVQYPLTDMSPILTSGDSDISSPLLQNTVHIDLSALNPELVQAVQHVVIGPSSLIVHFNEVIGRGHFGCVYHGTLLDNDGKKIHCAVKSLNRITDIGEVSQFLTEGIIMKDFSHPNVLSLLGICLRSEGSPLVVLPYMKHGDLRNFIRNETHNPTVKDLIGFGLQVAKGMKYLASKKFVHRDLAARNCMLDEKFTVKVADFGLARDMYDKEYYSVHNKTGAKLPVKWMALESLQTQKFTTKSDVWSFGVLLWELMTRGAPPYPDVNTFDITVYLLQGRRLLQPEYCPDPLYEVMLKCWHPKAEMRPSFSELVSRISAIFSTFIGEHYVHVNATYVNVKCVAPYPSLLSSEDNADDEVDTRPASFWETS

SMILES | pIC50 (c-MET) | pIC50 (MKN45 cells; [1]) | pIC50 (MKN45 cells; cellular proliferation by 14C-thymidine pulse)
CC(Oc1cc2sc(NC(=O)NCCN3CCN(C)CC3)nc2cc1F)c1c(Cl)ccc(F)c1Cl (single isomer, unassigned) [Example 76, 1-{6-[(1R*)-1-(2,6-dichloro-3-fluorophenyl)ethoxy]-5-fluoro-1,3-benzothiazol-2-yl}-3-[2-(4-methylpiperazin-1-yl)ethyl]urea] | > 7.00 | > 6.30 | –
CC(Oc1cc2sc(NC(=O)NCCN3CCN(C)CC3)nc2cc1F)c1c(Cl)ccc(F)c1Cl (single isomer, unassigned) [Example 77, 1-{6-[(1S*)-1-(2,6-dichloro-3-fluorophenyl)ethoxy]-5-fluoro-1,3-benzothiazol-2-yl}-3-[2-(4-methylpiperazin-1-yl)ethyl]urea] | > 7.00 | – | 5.00 to 6.30
CC(Oc1cc2sc(NC(=O)NCCN3CCCC3)nc2cc1F)c1c(Cl)ccc(F)c1Cl (single isomer, unassigned) [Example 85, 1-{6-[(1R*)-1-(2,6-dichloro-3-fluorophenyl)ethoxy]-5-fluoro-1,3-benzothiazol-2-yl}-3-[2-(pyrrolidin-1-yl)ethyl]urea] | > 7.00 | > 6.30 | –
CC(Oc1cc2[nH]c(NC(=O)NCCN3CCOCC3)nc2cc1F)c1c(Cl)ccc(F)c1Cl (centres unmarked) [Example 6, 1-{6-[1-(2,6-dichloro-3-fluorophenyl)ethoxy]-5-fluoro-1H-benzimidazol-2-yl}-3-(2-morpholin-4-ylethyl)urea] | > 7.00 | 5.00 to 6.30 | –
O=C(Nc1nc2ccc(OCc3c(Cl)cccc3Cl)cc2[nH]1)C1CC1 [Example 7, N-{6-[(2,6-dichlorobenzyl)oxy]-1H-benzimidazol-2-yl}cyclopropane carboxamide] | > 7.00 | > 6.30 | –
CC(Oc1cc2sc(NC(=O)NCCN3CCN(C)CC3)nc2cc1F)c1c(Cl)ccc(F)c1Cl (centres unmarked) [Example 75, 1-{6-[1-(2,6-dichloro-3-fluorophenyl)ethoxy]-5-fluoro-1,3-benzothiazol-2-yl}-3-[2-(4-methylpiperazin-1-yl)ethyl]urea] | > 7.00 | > 6.30 | –
CC(Oc1cc2sc(NC(=O)NCCCN3CCCC3=O)nc2cc1F)c1c(Cl)ccc(F)c1Cl (centres unmarked) [Example 78, 1-{6-[1-(2,6-dichloro-3-fluorophenyl)ethoxy]-5-fluoro-1,3-benzothiazol-2-yl}-3-[3-(2-oxopyrrolidin-1-yl)propyl]urea] | > 7.00 | 5.00 to 6.30 | –
CC(Oc1cc2sc(NC(=O)NCCC3CCCN3C)nc2cc1F)c1c(Cl)ccc(F)c1Cl (centres unmarked) [Example 79, 1-{6-[1-(2,6-dichloro-3-fluorophenyl)ethoxy]-5-fluoro-1,3-benzothiazol-2-yl}-3-[2-(1-methylpyrrolidin-2-yl)ethyl]urea] | > 7.00 | 5.00 to 6.30 | –
COCCNC(=O)Nc1nc2cc(F)c(OC(C)c3c(Cl)ccc(F)c3Cl)cc2s1 (centres unmarked) [Example 81, 1-{6-[1-(2,6-dichloro-3-fluorophenyl)ethoxy]-5-fluoro-1,3-benzothiazol-2-yl}-3-(2-methoxyethyl)urea] | > 7.00 | 5.00 to 6.30 | –
CCN(CC)CCNC(=O)Nc1nc2ccc(OC(C)c3c(Cl)ccc(F)c3Cl)cc2s1 (centres unmarked) [Example 82, 1-{6-[1-(2,6-dichloro-3-fluorophenyl)ethoxy]-1,3-benzothiazol-2-yl}-3-[2-(diethylamino)ethyl]urea] | > 7.00 | 5.00 to 6.30 | –
CCN(CC)CCCNC(=O)Nc1nc2ccc(OC(C)c3c(Cl)ccc(F)c3Cl)cc2s1 (centres unmarked) [Example 83, 1-{6-[1-(2,6-dichloro-3-fluorophenyl)ethoxy]-1,3-benzothiazol-2-yl}-3-[3-(diethylamino)propyl]urea] | > 7.00 | 5.00 to 6.30 | –
CC(Oc1cc2sc(NC(=O)NCCN3CCCC3)nc2cc1F)c1c(Cl)ccc(F)c1Cl (centres unmarked) [Example 84, 1-{6-[1-(2,6-dichloro-3-fluorophenyl)ethoxy]-5-fluoro-1,3-benzothiazol-2-yl}-3-[2-(pyrrolidin-1-yl)ethyl]urea] | > 7.00 | > 6.30 | –
CC(Oc1cc2sc(NC(=O)NCCN(C)C(=O)OC(C)(C)C)nc2cc1F)c1c(Cl)ccc(F)c1Cl (centres unmarked) [Example 95] | > 7.00 | 5.00 to 6.30 | –

Other lines, results leading:

pIC50 (c-MET) | pIC50 (MKN45 cells; [1]) | pIC50 (MKN45 cells; cellular proliferation by 14C-thymidine pulse) | SMILES
> 7.00 | 5.00 to 6.30 | – | CC(Oc1cc2sc(NC(=O)NCCN)nc2cc1F)c1c(Cl)ccc(F)c1Cl (single isomer, unassigned) [Example 89, 1-(2-aminoethyl)-3-{6-[(1R*)-1-(2,6-dichloro-3-fluorophenyl)ethoxy]-5-fluoro-1,3-benzothiazol-2-yl}urea]
> 7.00 | 5.00 to 6.30 | – | CC(Oc1cc2sc(NC(=O)NCCN)nc2cc1F)c1c(Cl)ccc(F)c1Cl (centres unmarked) [Example 88, 1-(2-aminoethyl)-3-{6-[1-(2,6-dichloro-3-fluorophenyl)ethoxy]-5-fluoro-1,3-benzothiazol-2-yl}urea]
> 7.00 | 5.00 to 6.30 | – | CC(Oc1cc2sc(NC(=O)NCCN(C)Cc3ccccc3)nc2cc1F)c1c(Cl)ccc(F)c1Cl (centres unmarked) [Example 94, 1-{2-[benzyl(methyl)amino]ethyl}-3-{6-[1-(2,6-dichloro-3-fluorophenyl)ethoxy]-5-fluoro-1,3-benzothiazol-2-yl}urea]
> 7.00 | 5.00 to 6.30 | – | CNCCNC(=O)Nc1nc2cc(F)c(OC(C)c3c(Cl)ccc(F)c3Cl)cc2s1 (centres unmarked) [Example 96, 1-{6-[1-(2,6-dichloro-3-fluorophenyl)ethoxy]-5-fluoro-1,3-benzothiazol-2-yl}-3-[2-(methylamino)ethyl]urea]
> 7.00 | 5.00 to 6.30 | – | CC(Oc1cc2sc(NC(=O)NCCOCc3ccccc3)nc2cc1F)c1c(Cl)ccc(F)c1Cl (centres unmarked) [Example 97, 1-[2-(benzyloxy)ethyl]-3-{6-[1-(2,6-dichloro-3-fluorophenyl)ethoxy]-5-fluoro-1,3-benzothiazol-2-yl}urea]
> 7.00 | 5.00 to 6.30 | – | CC(Oc1cc2sc(NC(=O)NCCO)nc2cc1F)c1c(Cl)ccc(F)c1Cl (centres unmarked) [Example 98, 1-{6-[1-(2,6-dichloro-3-fluorophenyl)ethoxy]-5-fluoro-1,3-benzothiazol-2-yl}-3-(2-hydroxyethyl)urea]

Reference: patent publication US8188078B2 (Sanofi-Aventis, priority 2007, dated 2012)
